Patent publication US20170253607A1, “LONG-ACTING HIV PROTEASE INHIBITOR” (Shionogi & Co., Ltd., priority 2014, published 2017)
pIC50: −log10 of the molar value.

Experiments:
HIV-1 PR = HIV-1 PR (Human immunodeficiency virus type 1 group M subtype B, UniProt P04585); test: HIV-protease inhibitory activity assay (FRET peptide substrate); type: biochemical; conditions: Test Example 1
Method in brief: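 HIV-1 PR (0.83 ng) preincubated with compounds 20 min at room temperature in 0.1 mol/L NaAc, 0.5 mol/L NaCl, 1 mmol/L EDTA, 1 mmol/L DTT, 0.05% Tween 20, pH 4.8. Cleavage of HiLyte Fluor 488/QXL 520 FRET peptide (2 μmol/L) read after 60 minutes at 485/535 nm; IC50 from four-parameter logistic fit.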

[1] = Evaluation of total body clearance (CLtot), intravenous administration; type: in vivo, Sprague-Dawley (SD); conditions: rat (SD), intravenous administration 0.5-10 mg/kg; CLtot = dose/AUC
Method in brief: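 Plasma levels quantified by LC/MS/MS after intravenous tail-vein dosing (0.5-10 mg/kg, compound-dependent; n=2-3). AUC from pharmacokinetic analysis; total clearance calculated as dose/AUC.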

[2] = Protein binding test (equilibrium dialysis, unbound ratio fu in serum); type: in vitro ADME; conditions: 37° C.; for rat_fu: rat serum, equilibrium dialysis 24 hours, 2 μg/mL
Description: Assay condition: Evaluation method; Equilibrium dialysis method, Reaction time; 24 hours, Reaction temperature; 37° C., Assay concentration; 2 μg/mL A solution of the compound was added to each serum and mixed to prepare the serum samples with above concentration. The serum sample was put into one side of an equilibrium dialysis apparatus with dialysis membrane and phosphate buffered saline (PBS) was also put to another side of the apparatus. The apparatus was incubated at 37° C. for 24 hours. After incubation, the serum and PBS samples were collected and the compound concentrations in both samples were measured by LC/MS/MS. Fu was calculated by dividing the concentration in PBS by the concentration in the serum.

| Structure (SMILES) | pIC50 (HIV-1 PR) | rat_CLt [1] | rat_fu [2] | fraction unbound at 24 h, 2 μg/mL ([2]; serum, equilibrium dialysis, 24 hours, read-out: Serum protein binding rate (converted)) |
| --- | --- | --- | --- | --- |
| COc1ccc(S(=O)(=O)N(CC(C)C)CC(O)C(Cc2ccc(OCc3ccccc3-c3sc4c(c3C(=O)O)CC(C)(C)CC4)cc2)NC(=O)OC2COC3(CO)OCCC23)cc1 (stereo not shown) [Compound I-99] | 9.09 | 0.576 mL/min/kg | <0.1% |  |
| COc1ccc(S(=O)(=O)N(CC(C)C)CC(O)C(Cc2ccc(OCc3ccccc3-c3sc4c(c3C(=O)O)CCC4)cc2)NC(=O)OC2COC3OCCC23)cc1 (stereo not shown) [Compound I-832] | 8.94 | 4.09 mL/min/kg | <0.1% |  |
| COc1ccc(S(=O)(=O)N(CC(C)C)CC(O)C(Cc2ccc(N(C)CCc3ccccc3-c3sc4c(c3C(=O)O)CC(C)(C)CC4)cc2)NC(=O)OC2COC3(C)OCCC23)cc1 (stereo not shown) [Compound I-261] | 8.45 | 2.78 mL/min/kg | <0.1% |  |
| CC(C)CN(CC(O)C(Cc1ccccc1)NC(=O)OC1COC2(C)OCCC12)S(=O)(=O)c1ccc2nc(NCc3ccc(-c4sc5c(c4C(=O)O)CC(C)(C)CC5)cc3)sc2c1 (stereo not shown) [Compound I-798] | 9.00 | 4.54 mL/min/kg | <0.1% |  |
| COc1ccc(S(=O)(=O)N(CC(C)C)CC(O)C(Cc2ccc(NCc3ncccc3-c3ccc(-c4sc5c(c4C(=O)O)CC(C)(C)CC5)cc3)cc2)NC(=O)OC2COC3(C)OCCC23)cc1 (stereo not shown) [Compound I-415] | 8.59 | 0.66 mL/min/kg | <0.1% |  |
| COc1ccc(S(=O)(=O)N(CC(C)C)CC(O)C(Cc2ccc(NC3Cc4cccc(-c5sc6c(c5C(=O)O)CC(C)(C)CC6)c4C3)cc2)NC(=O)OC2COC3(C)OCCC23)cc1 (stereo not shown) [Compound I-241] | 8.53 | 0.404 mL/min/kg | <0.1% |  |
| CC(C)CN(CC(O)C(Cc1ccc(OCc2ccccc2-c2sc3c(c2C(=O)O)CC(C)(C)CC3)cc1)NC(=O)OC1COC2(C)OCCC12)S(=O)(=O)c1ccc2nc(O)sc2c1 (stereo not shown) [Compound I-131] | 8.67 | 2.27 mL/min/kg | <0.1% |  |
| COc1ccc(S(=O)(=O)N(CC(C)C)CC(O)C(Cc2ccc(NC3Cc4cccc(-c5sc6c(c5C(=O)O)CC(C)(C)CC6)c4C3)cc2)NC(=O)OC2COC3(C)OCCC23)cc1 (stereo not shown) [Compound I-242] | 8.51 | 0.408 mL/min/kg | <0.1% |  |
| COc1ccc(S(=O)(=O)N(CC(C)C)CC(O)C(Cc2ccc(N3CC(C)C(Oc4ccccc4-c4sc5c(c4C(=O)O)CC(C)(C)CC5)C3)cc2)NC(=O)OC2COC3(C)OCCC23)cc1 (stereo not shown) [Compound I-406] | 8.72 | 4.61 mL/min/kg | <0.1% |  |
| COc1ccc(S(=O)(=O)N(CC(C)C)CC(O)C(Cc2ccc(NCCCc3ccccc3-c3sc4c(c3C(=O)O)CC(C)(C)CC4)cc2)NC(=O)OC2COC3(C)OCCC23)cc1 (stereo not shown) [Compound I-260] | 8.53 | 0.801 mL/min/kg | <0.1% |  |
| COc1ccc(S(=O)(=O)N(CC(C)C)CC(O)C(Cc2ccc(OCc3ncccc3-c3ccc(-c4sc5c(c4C(=O)O)CC(C)(C)CC5)cc3)cc2)NC(=O)OC2COC3(C)OCCC23)cc1 (stereo not shown) [Compound I-44] | 8.96 | 0.535 mL/min/kg | <0.1% |  |
| COc1ccc(S(=O)(=O)N(CC(C)C)CC(O)C(Cc2ccc(NCc3ccccc3-c3sc4c(c3C(=O)O)CC(C)(C)CC4(C)C)cc2)NC(=O)OC2COC3(C)OCCC23)cc1 (stereo not shown) [Compound I-418] | 8.66 | 1.49 mL/min/kg | <0.1% |  |
| COc1ccc(S(=O)(=O)N(CC(C)C)C[C@@H](O)[C@H](Cc2ccc(OCc3ccccc3-c3sc4c(c3C(=O)O)CC(C)(C)CC4)cc2)NC(=O)OC2CO[C@H]3OC[C@H](OC)[C@@H]23)cc1 (stereo partly shown) [Compound I-907] | 8.90 | 0.73 mL/min/kg | <0.1% |  |
| CC(C)CN(CC(O)C(Cc1ccc(OCc2ccccc2-c2sc3c(c2C(=O)O)CC(C)(C)CC3)cc1)NC(=O)OC1COC2(C)OCCC12)S(=O)(=O)c1ccc2c(c1)OCO2 (stereo not shown) [Compound I-132] | 8.58 | 0.376 mL/min/kg | <0.1% |  |
| COc1ccc(S(=O)(=O)N(CC(C)C)CC(O)C(Cc2ccc(CN3CCc4ccc(-c5sc6c(c5C(=O)O)CC(C)(C)CC6)cc4C3)cc2)NC(=O)OC2COC3(C)OCCC23)cc1 (stereo not shown) [Compound I-389] | 8.75 | 14 mL/min/kg | <0.1% |  |
| COc1ccc(S(=O)(=O)N(CC(C)C)CC(O)C(Cc2ccc(OCc3ncc(F)cc3-c3sc4c(c3C(=O)O)CC(C)(C)CC4)cc2)NC(=O)OC2COC3(C)OCCC23)cc1 (stereo not shown) [Compound I-182] | 8.84 | 3.84 mL/min/kg | <0.1% |  |
| COc1ccc(S(=O)(=O)N(CC(C)C)C[C@@H](O)[C@H](Cc2ccc(OCc3ccccc3-c3sc4c(c3C(=O)O)CC(C)(C)CC4)cc2)NC(=O)O[C@H]2CO[C@@]3(C)OCC[C@@H]23)cc1 [Compound I-1] | 8.89 | 0.542 mL/min/kg | <0.1% |  |
| COc1ccc(S(=O)(=O)N(CC(C)C)CC(O)C(Cc2ccc(N(C)CC3CCCCC3c3sc4c(c3C(=O)O)CC(C)(C)CC4)cc2)NC(=O)OC2COC3(C)OCCC23)cc1 (stereo not shown) [Compound I-374] | 8.36 | 3.94 mL/min/kg | <0.1% |  |
| COc1ccc(S(=O)(=O)N(CC(C)C)CC(O)C(Cc2ccc(OC3CCCN(c4ccccc4-c4sc5c(c4C(=O)O)CC(C)(C)CC5)C3)cc2)NC(=O)OC2COC3(C)OCCC23)cc1 (stereo not shown) [Compound I-102] | 8.42 | 4.24 mL/min/kg | <0.1% |  |
| COc1ccc(S(=O)(=O)N(CC(C)C)CC(O)C(Cc2ccc(NCc3cc(C(F)(F)F)ccc3-n3nc4c(c3C(=O)O)CC(C)(C)CC4)cc2)NC(=O)OC2COC3(C)OCCC23)cc1 (stereo not shown) [Compound I-378] | 8.39 | 0.173 mL/min/kg | <0.1% |  |
| COc1ccc(S(=O)(=O)N(CC(C)C)CC(O)C(Cc2ccc(N3CCC(Oc4ccccc4-c4sc5c(c4C(=O)O)CC(C)(C)CC5)C3)cc2)NC(=O)OC2COC3(C)OCCC23)cc1 (stereo not shown) [Compound I-234] | 8.46 | 1.49 mL/min/kg | <0.1% |  |
| COc1ccc(S(=O)(=O)N(CC2CCC(=O)N2)CC(O)C(Cc2ccc(OCc3ccccc3-c3sc4c(c3C(=O)O)CC(C)(C)CC4)cc2)NC(=O)OC2COC3(C)OCCC23)cc1 (stereo not shown) [Compound I-148] | 8.94 | 2.5 mL/min/kg | <0.1% |  |
| COc1ccc(S(=O)(=O)N(CC(C)C)C[C@@H](O)[C@H](Cc2ccc(OC(C)(C)C(=O)Nc3sc4c(c3C(=O)O)CC(C)(C)CC4)cc2)NC(=O)O[C@H]2CO[C@@]3(C)OCC[C@@H]23)cc1 [Compound I-7] | 8.64 | 0.238 mL/min/kg | <0.1% |  |
| COc1ccc(S(=O)(=O)N(CC(C)C)CC(O)C(Cc2ccc(OCC3=C(c4sc5c(c4C(=O)O)CC(C)(C)CC5)CCCC3)cc2)NC(=O)OC2COC3(C)OCCC23)cc1 (stereo not shown) [Compound I-243] | 8.37 | 0.477 mL/min/kg | <0.1% |  |
| COc1ccc(S(=O)(=O)N(CC(C)C)C[C@@H](O)[C@H](Cc2ccc(NC3CN(c4ccccc4-c4sc5c(c4C(=O)O)CC(C)(C)CC5)C3)cc2)NC(=O)O[C@H]2CO[C@@]3(C)OCC[C@@H]23)cc1 [Compound I-228] | 8.40 | 0.144 mL/min/kg | <0.1% |  |
| COc1ccc(S(=O)(=O)N(CC(C)C)CC(O)C(Cc2ccc(NCC3=C(c4sc5c(c4C(=O)O)CC(C)(C)CC5)CCCC3)cc2)NC(=O)OC2COC3(C)OCCC23)cc1 (stereo not shown) [Compound I-231] | 8.41 | 1.02 mL/min/kg | <0.1% |  |
| COc1ccc(S(=O)(=O)N(CC(C)C)CC(O)C(Cc2ccc(NC3CCN(c4ccccc4-c4sc5c(c4C(=O)O)CC(C)(C)CC5)C3)cc2)NC(=O)OC2COC3(C)OCCC23)cc1 (stereo not shown) [Compound I-238] | 8.60 | 3.05 mL/min/kg | <0.1% |  |
| CCN(Cc1ccccc1-c1sc2c(c1C(=O)O)CC(C)(C)CC2)c1ccc(CC(NC(=O)OC2COC3(C)OCCC23)C(O)CN(CC(C)C)S(=O)(=O)c2ccc(OC)cc2)cc1 (stereo not shown) [Compound I-352] | 8.37 | 3.26 mL/min/kg | <0.1% |  |
| COc1ccc(S(=O)(=O)N(CC(C)C)CC(O)C(Cc2ccc(NCc3ccc(OC)cc3-c3sc4c(c3C(=O)O)CC(C)(C)CC4)cc2)NC(=O)OC2COC3(C)OCCC23)cc1 (stereo not shown) [Compound I-274] | 8.68 | 0.659 mL/min/kg | <0.1% |  |
| CC(C)CN(C[C@@H](O)[C@H](Cc1ccccc1)NC(=O)O[C@H]1CO[C@H]2OCC[C@H]21)S(=O)(=O)c1ccc(N)cc1 [Darunavir, (3R,3aS,6aR)-hexahydrofuro[2,3-b]furan-3-yl[(1S,2R)-3-{[(4-aminophenyl)sulfonyl] (2-methylpropyl)amino}-1-benzyl-2-hydroxypropyl]carbamate, reference compound] |  |  |  | 0.903 |
